Source: US20250009856A1, “METHODS FOR TREATING RESPIRATORY DISEASES” (MUCPharm Pty Ltd, priority 2021, published 2025)
Several values for one entry are separate records, joined by “and”; a condition that tells them apart may be missing. Identical values can stand only once.

Experiments:
[1] = Pipette flow speed after aerosol treatment; parameters: species or system human; settings: SS; for Pipette flow speed (€), After: before 0.0137 ± 0.005
Experimental: Six grams of soft PMP mucin was homogenised using a shredder with phosphate buffer saline (PBS) (3.0 ml) with sonification and vortexed until a homogenous mixture was formed, with incubation at 37° C. to remove air bubbles and after which viscosity was adjusted (further dilutions with PBS). The pH was adjusted to 7.0 using either 1.0 M NaOH or 0.1 N Hydrochloric acid. Using a 0.5 ml glass pipette fixed at an angle of 60°, 0.5 ml of sample at 25° C. (ambient room temperature) was sucked up the pipette and the time taken to empty 0.3 ml of the sample was timed in sec. Pipette flow time (€) was calculated as follows: € (ml/sec)=0.3 ml/Time to empty 0.3 ml (sec) A similar investigation as above was carried out to determine a comparative dynamic viscosity and pipette flow time for PMP mucin simulated sputa (SS). A similar treatment as in the experiment described above for NAC was carried out using Bromelain (125 and 250 μg/ml) in PBS (pH.7.0) along with control using PBS (pH.7.0). Both dynamic viscosity and pipette flow time was measured as outlined earlier for both artificial and PMP simulated sputa models. Using a combination of NAC (20 mg/ml) with either 125 or 250 μg/ml Bromelain in PBS (pH.7.0), a similar investigation was carried out as outlined earlier and measurements were made for both artificial and simulated sputa models. D=(TREATED)−(UNTREATED/(UNTREATED)×100.

[2] = Dynamic viscosity after mixing with BromAc, DNase and combinations; settings: agent without DNASE: BR(25 ug/ml), NAC(20 mg/ml), or BR(250 ug/ml) + NAC(20 ug/ml); 1 hour, 37 deg C; Cont(PBS) 2.36
Experimental: Artificial sputa was prepared following methodology with ingredients as in earlier experiments. To 1.5 ml of artificial sputa in a vial was added 0.5 ml of reagent containing the required bromelain, NAC, DNase and their combinations. Control vials included 0.5 ml of PBS only. The mixture was vortex mixed and incubated in a shaker water bath at 37 deg C. At the end of 1 hour, the samples were retrieved, vortex mixed and equilibrated to ambient room temperature before measuring dynamic viscosity and pipette flow.
Dynamic viscosity was determined using the capillary tube method as in earlier experiments, whilst the pipette flow was evaluated using a 0.5 ml pipette inclined at 60 deg angle. The pipette flow was calculated as shown below.

SPF rabbits = test: Tolerability study of inhaled BromAc in rabbit model; settings: Ac 20 mg inhaled; 48 h
[3] = Bromelain and acetylcysteine in plasma (ELISA), rabbit tolerability study; settings: 4, 6, 24 and 48 h post-inhalation of 0.1 or 0.25 mg bromelain alone or in combination with acetylcysteine
[4] = Pipette flow speed after aerosol treatment; settings: AS; for Pipette flow speed (€), After: before 0.005 ± 0.001
Experimental: Artificial sputum was prepared following protocol as detailed by […] et al (Kirchner, S., et al., Use of artificial sputum medium to test antibiotic efficacy against Pseudomonas aeruginosa in conditions more relevant to the cystic fibrosis lung. Journal of visualized experiments: JOVE, 2012 (64)). Briefly 250 mg of porcine mucin, 200 mg of sperm DNA, 295 mg of diethylene triamine pentaacetic acid (DPTA), 25 mg sodium chloride, 110 mg potassium chloride, 140 mg Tris base were mixed in a volume of 45 ml of distilled water and pH adjusted to 7.0 using Trisbase. The volume of the solution was then adjusted to 50 ml. Further dilutions were then carried out to adjust viscosity as desired. Using a 0.5 ml glass pipette fixed at an angle of 60°, 0.5 ml of sample at 25° C. (ambient room temperature) was sucked up the pipette and the time taken to empty 0.3 ml of the sample was timed in sec. Pipette flow time (€) was calculated as follows: € (ml/sec)=0.3 ml/Time to empty 0.3 ml (sec) Artificial sputa (AS) were prepared as detailed above, and 1.5 ml of artificial sputum was carefully emptied into an endotracheal tube (in triplicates). A volume of 6.0 ml of NAC 10 mg/ml in PBS (pH.7.0) in triplicate was aerosolised using a nebulizer and passed over the sputum samples in the endotracheal tubes kept at 37° C. in a water bath. Similarly, the experiments were repeated using NAC 20 mg/ml in PBS (pH.7.0). The controls only received PBS (pH 7.0). The aerosol delivery time to empty 6.0 ml for each treatment was 25 min. The dynamic viscosity of the sputa was measured before and after using the capillary tube method, whilst the pipette flow time was also measured as described earlier using a 0.5 ml glass pipette. Samples were equilibrated to 25° C. before measurement A similar treatment as in the experiment described above for NAC was carried out using Bromelain (125 and 250 μg/ml) in PBS (pH.7.0) along with control using PBS (pH.7.0). Both dynamic viscosity and pipette flow time was measured as outlined earlier for both artificial and PMP simulated sputa models. Using a combination of NAC (20 mg/ml) with either 125 or 250 μg/ml Bromelain in PBS (pH.7.0), a similar investigation was carried out as outlined earlier and measurements were made for both artificial and simulated sputa models. D=(TREATED)-(UNTREATED/(UNTREATED)×100.

[5] = Particle size distribution of aerosols by laser diffraction, Pari LC Sprint nebulizer; type: physicochemical; settings: mean
Experimental: The particle size distributions (PSD) of 5 formulations containing bromelain and acetylcysteine at different concentrations were determined. The formulations were aerosolized using a PARI TurboBOY SX compressor, combined with the Pari LC Sprint nebulizer (PARI GmbH, USA). The nebulizer was connected to a USP induction port (throat), and particle size was measured at flow rate of 15 L/min in Spraytec particle sizer (Malvern Instruments, Malvern, UK). Measurements were performed in triplicate. Results are expressed as D10, D50 and D90, indicating the particle diameter at 10, 50 and 90% in the cumulative distribution.
The formulations were prepared in saline (0.9% w/v) and kept at −20° C. prior to analysis. The formulations tested were: • 1. Control: Saline (sodium chloride 0.9% w/v) • 2. Low Concentration of Ac (8 mg/mL) • 3. High Concentration of Ac (60 mg/mL) • 4. Brom at 50 μg/mL • 5. Combination 1: Low Ac (8 mg/mL)+Brom (50 μg/mL) • 6. Combination 2: High Ac (60 mg/mL)+Brom (50 μg/mL)

CC(=O)N[C@@H](CS)C(=O)O [NAC, N-acetylcysteine]
D (%), increase of pipette flow speed (€) ([1]; aerosol NAC 10 mg/ml): 34% and 34 ↑ %
Pipette flow speed (€), After ([1]; aerosol NAC 10 mg/ml): 0.0183 ± 0.001 mL/s
D (%), increase of pipette flow speed (€) ([1]; aerosol NAC 20 mg/ml): 46% and 46 ↑ %
Pipette flow speed (€), After ([1]; aerosol NAC 20 mg/ml): 0.02 ± 0.002 mL/s
Dynamic viscosity (¥) [2]: 1.640 cSt
Incident: Broncho-interstitial pneumonia, multifocal, mild (SPF rabbits): 1 out of 4
Incident: Broncho-interstitial pneumonia, multifocal, mild, granulomatous (SPF rabbits): 3 out of 4
detection in plasma (ELISA) [3]: not detected
D (%), increase of pipette flow speed (€) ([4]; aerosol NAC 10 mg/ml): 28% and 28 ↑ %
Pipette flow speed (€), After ([4]; aerosol NAC 10 mg/ml): 0.0064 ± 0.003 mL/s
D (%), increase of pipette flow speed (€) ([4]; aerosol NAC 20 mg/ml): 40% and 40 ↑ %
Pipette flow speed (€), After ([4]; aerosol NAC 20 mg/ml): 0.007 ± 0.001 mL/s
D10 ([5]; NAC 8 mg/mL in saline): 1.19 µm
D50 ([5]; NAC 8 mg/mL in saline): 3.26 μm
D90 ([5]; NAC 8 mg/mL in saline): 8.23c
D10 ([5]; NAC 60 mg/mL in saline): 1.12 µm
D50 ([5]; NAC 60 mg/mL in saline): 2.87b μm
D90 ([5]; NAC 60 mg/mL in saline): 7.47 µm
